The structures appear in SMILES notation.

Among the data in patent US20070043010A1, “Quinazoline derivatives” (ASTRAZENECA UK LIMITED, priority 2003, published 2007) are IC50 values, retold here.

For this experiment, the system named is KB cells. In words: EGFR driven KB cell proliferation assay, Test (b). The class given is cell-based. The conditions noted are these: Homo sapiens, 96 h, EGF 1 ng/ml, 4 days, MTT. Here is the method: This assay measures the ability of a test compound to inhibit the proliferation of KB cells (human naso-pharangeal carcinoma obtained from the American Type Culture Collection (ATCC).
KB cells (human naso-pharangeal carcinoma obtained from the ATCC were cultured in Dulbecco's modified Eagle's medium (DMEM) containing 10% foetal calf serum, 2 mM glutamine and non-essential amino acids at 37° C. in a 7.5% CO2 air incubator. Cells were harvested from the stock flasks using Trypsin/ethylaminediaminetetraacetic acid (EDTA). Cell density was measured using a haemocytometer and viability was calculated using trypan blue solution before being seeded at a density of 1.25×10^3 cells per well of a 96 well plate in DMEM containing 2.5% charcoal stripped serum, 1 mM glutamine and non-essential amino acids at 37° C. in 7.5% CO2 and allowed to settle for 4 hours.
Following adhesion to the plate, the cells are treated with or without EGF (final concentration of 1 ng/ml) and with or without compound at a range of concentrations in dimethylsulfoxide (DMSO) (0.1% fial) before incubation for 4 days. Following the incubation period, cell numbers were determined by addition of 50 μl of 3-(4,5-Dimethylthiazol-2-yl)-2,5-diphenyltetrazolium bromide (MTT) (stock 5 mg/ml) for 2 hours. MTT solution was then tipped off, the plate gently tapped dry and the cells dissolved upon the addition of 100 μl of DMSO.
Absorbance of the solubilised cells was read at 540 nm using a Molecular Devices ThermoMax microplate reader. Inhibition of proliferation was expressed as an IC50 value. This was determined by calculation of the concentration of compound that was required to give 50% inhibition of proliferation. The range of proliferation was calculated from the positive (vehicle plus EGF) and negative (vehicle minus EGF) control values.
In general, IC50 refers to the concentration that gives 50% inhibition. A higher IC50 goes with lower potency. Take `COc1cc2ncnc(Nc3cccc(Cl)c3F)c2cc1O[C@H]1C[C@H](C(=O)NCCNC(C)=O)N(C)C1` [Compound 11-13, (4S)—N-[2-(acetylamino)ethyl]-4-({4-[(3-chloro-2-fluorophenyl)amino]-7-methoxyquinazolin-6-yl}oxy)-1-methyl-D-prolinamide]: the IC50 was determined as 144 nM. `COc1cc2ncnc(Nc3cccc(Cl)c3F)c2cc1O[C@H]1C[C@H](C(=O)N[C@H]2COC[C@@H]2O)N(C)C1` [Compound 11-14, (4S)-4-({4-[(3-chloro-2-fluorophenyl)amino]-7-methoxyquinazolin-6-yl}oxy)-N-[(3S,4R)-4-hydroxytetrahydrofuran-3-yl]-1-methyl-D-prolinamide] came in with an IC50 of 139 nM. This IC50 and that of the molecule before are within 1.5-fold of each other.

In the case of `COc1cc2ncnc(Nc3cccc(Cl)c3F)c2cc1O[C@@H]1C[C@@H](C(=O)NCCC#N)N(C)C1` [Compound 13-3], inhibition was half-maximal at 63 nM (IC50). This IC50 lies about 2.2-fold lower than the previous one.
